The target in test [1] is T1, CarE CCE001a (Helicoverpa armigera, UniProt D9IV61).
T1 construct: no purification described
T1 sequence (D9IV61 17-555): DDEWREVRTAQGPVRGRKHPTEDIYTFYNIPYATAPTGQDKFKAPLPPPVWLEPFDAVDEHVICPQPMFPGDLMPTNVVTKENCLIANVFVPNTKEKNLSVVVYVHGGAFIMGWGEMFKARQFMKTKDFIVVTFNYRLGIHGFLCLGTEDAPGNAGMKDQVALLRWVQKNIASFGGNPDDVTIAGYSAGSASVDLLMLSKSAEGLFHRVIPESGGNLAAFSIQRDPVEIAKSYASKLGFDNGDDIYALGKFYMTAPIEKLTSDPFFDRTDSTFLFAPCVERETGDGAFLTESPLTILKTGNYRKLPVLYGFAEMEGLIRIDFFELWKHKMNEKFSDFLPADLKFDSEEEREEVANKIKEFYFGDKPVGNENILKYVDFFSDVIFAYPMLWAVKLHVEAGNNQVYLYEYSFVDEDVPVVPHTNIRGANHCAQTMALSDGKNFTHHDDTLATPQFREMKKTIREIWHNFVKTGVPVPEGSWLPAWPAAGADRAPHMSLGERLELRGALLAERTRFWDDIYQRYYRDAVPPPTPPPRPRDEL
The test can be described thus: free gossypol depletion by HPLC; products by UPLC-QTOF/MS. The format is cell-based. To be noted: PBS, NADPH-Na4 added, 37 °C, 1.5 h, dark; recombinant protein from P. pastoris expression, purification not described.

Test [2] deals with T1, CarE CCE001a. The test can be described thus: esterase activity, absorbance at […] nm. To be noted: 37 °C; recombinant protein from P. pastoris expression, purification not described. Type of test: cell-based.

The values that follow come from PMC9788223, “Biodegradation of Free Gossypol by Helicoverpa armigera Carboxylesterase Expressed in Pichia pastoris” (Toxins, 2022).

Take `Cc1cc2c(C(C)C)c(O)c(O)c(C=O)c2c(O)c1-c1c(C)cc2c(C(C)C)c(O)c(O)c(C=O)c2c1O` [Gossypol]: the “free gossypol depletion by HPLC; products by UPLC-QTOF/MS” value at CarE CCE001a [1] was “Under the influence of recombinant CarE, TG and FG levels decreased rapidly in the experimental group”. Turning to `CC(=O)Oc1cccc2ccccc12` [alpha-naphthyl acetate], the “esterase activity, absorbance at 450 nm” value on CarE CCE001a [2] is “We also evaluated the enzyme activity of the recombinant CCE001a protein with the model substrate”.
